Assay results as given in patent US8575116B1, “Polyacetylenic compounds for protecting against pancreatic islet atrophy” (Academia Sinica, priority 2010, dated 2013).

Assays:
STZ-treated C57BL mice = assay: Insulin sensitizer test: oral dose before insulin injection in STZ-treated C57BL mice; format: in vivo, mouse; details: cytopiloyne 0.5 and 2.5, glimepiride 2.5, metformin 60 mgkg^−1 oral; insulin 2.5 IUkg^−1
Protocol: FIGS. 3A-C show cytopiloyne-mediated insulin release depends on pancreatic islet cells. (A) Rat pancreatic islet cells were incubated with glucose-free KRB buffer containing vehicle or cytopiloyne at 1.5, 3, 7, 14, 28 and 42 μM (FIG. 3A-i). Similarly, rat pancreatic islet cells were incubated with KRB buffer containing vehicle, glimepiride (GLM, 10 μM) or cytopiloyne at 1.5, 3, 7, 14, 28 and 42 μM in the presence of 3.3 mM glucose (LG, FIG. 3A-ii) or 16.7 mM glucose (HG, FIG. 3A-iii). The insulin levels were determined using an insulin ELISA kit. The data presented as mean±SEM of 3 independent experiments. (B) Fed C57BL mice, which had already received an injection of STZ, were administered with an oral dose of vehicle, cytopiloyne (CP, 0.1, 0.5 and 2.5 mgkg^−1), and an intraperitoneal injection of insulin (Ins, 2.5 IUkg^−1). Blood sugar levels in the STZ-treated mice were determined using a glucometer. (C) C57BL mice, which had already received STZ, were orally administered with a single dose of vehicle, cytopiloyne (CP, 0.5 and 2.5 mgkg^−1), glimepiride (GLM, 2.5 mgkg^−1), or metformin (60 mgkg^−1), followed by an intraperitoneal injection with insulin (Ins). Blood sugar levels in the STZ-treated mice were determined using a glucometer. All the results from 3 independent experiments are expressed as mean±SEM, and P<0.05 was considered to be statistically significant (*). The number of mice (n) is indicated in parentheses.
To deplete pancreatic β-cells in mice, 6-week-old C57BL females (NLAC, Taipei, Taiwan) were intraperitoneally injected with STZ at 200 mgkg^−1. STZ-treated females with postprandial blood sugar over 500 mgdl^−1 were grouped. […] Blood glucose levels were monitored for 4 h. To distinguish sensitizer activity from releaser activity of cytopiloyne, STZ-treated C57BL mice were tube-fed with vehicle, glimepiride (2.5 mgkg^−1), metformin (60 mgkg^−1) or cytopiloyne (0.5 and 2.5 mgkg^−1) 1 h before insulin injection (2.5 IUkg^−1). Blood glucose levels in the mice were monitored from 0 to 4 h after insulin injection.

[1] = test system: rat pancreatic islet cells; assay: Intracellular staining for insulin and FACS in rat pancreatic islet cells; format: cell-based; details: 28 μM, brefeldin A, 24 h
Protocol: FIGS. 4A-C show an increase in insulin mRNA and protein content by cytopiloyne in pancreatic islet cells. (A) HIT-T15 β-cells transfected with phINS-Luc and pRL-TK plasmids were incubated with vehicle (NS), glimepiride (GLM, 10 μM), high glucose (HG, 16.7 mM) or cytopiloyne at 7, 14 or 28 μM. Ten μg of cell lysates from these cells underwent to dual luciferase assays. […] (C) Rat pancreatic islet cells were treated with vehicle, glucose (3.3 mM (LG) or 16.7 mM (HG)) or cytopiloyne (CP, 7, 14 and 28 μM) in the presence of brefeldin A for 24 h. After anti-insulin antibody staining, these cells underwent FACS analysis. The percentage of insulin-positive β-cells is shown. All the results from 3 independent experiments are expressed as mean±SEM, and P<0.05 was considered to be statistically significant (*).
The islets were disrupted into individual cells and underwent intracellular staining with anti-insulin antibody and FACS analysis.

RIN-m5F cells = assay: Intracellular calcium (Fura 2-AM) in RIN-m5F cells; format: cell-based, rat; details: cytopiloyne 7, 14 and 28 μM, glucose 16.7 mM
Protocol: FIGS. 5A-D show the effects of cytopiloyne on calcium mobilization, DAG generation and PKCa activation. (A) After Fura 2-AM loading, RIN-m5F cells were stimulated with 16.7 mM glucose (HG) and cytopiloyne at 7, 14 and 28 μM. Level of intracellular calcium, as shown by the 340/380 nm ratio, was detected using a fluorescence spectrophotometer. (B) RIN-m5F cells were pulsed with ^3H-myristic acid (5 Cim1^−1) for 16 hours. After washing, the cells were stimulated with glucose, cytopiloyne, PMA and glimepiride. Total lipids were separated on a silica thin layer plate. DAG and cholesterol were visualized with iodine vapor and identified by their standards. (C) RIN-m5F cells were incubated with vehicle (Mock), cytopiloyne (CP, 3, 7 and 14 μM), PMA (1 μM) and 16.7 mM (HG). Membrane or cytosolic proteins were subjected to Western blot with anti-PKCα and anti-Actin antibodies. (D) RIN-m5F cells were incubated with vehicle (Mock), cytopiloyne (CP 7 μM) and PMA (1 μM). […]
RIN-m5F cells were pre-loaded with Fura 2-AM (5 μM) in modified Krebs-Henseleit buffer for 30 min at 25° C. […] Intracellular calcium of the cells was measured using a fluorescence spectrophotometer (CAF 110, Jasco, Tokyo, Japan) at excitation wavelengths of 340 and 380 nm and an emission wavelength of 500 nm. The ratio of fluorescence intensity at 340 nm to that at 380 nm represents the level of intracellular calcium.

3T3-L1 cells = format: cell-based, mouse; details: differentiating 3T3-L1 cells; glimepiride 10 μM, rosiglitazone 1 μM, cytopiloyne 50 μM

Row | Structure (SMILES) | blood sugar lowering when dosed 60 min before insulin injection (STZ-treated C57BL mice) | intracellular insulin levels compared to the vehicle treatment [1] | intracellular calcium (340/380 nm ratio) (RIN-m5F cells) | lipid accumulation (lipid droplets, Oil red O) (3T3-L1 cells)
1 | CC#CC#CC#CC#CCCC(CO)O[C@@H]1O[C@H](CO)[C@@H](O)[C@H](O)[C@H]1O (stereo partly drawn) [cytopiloyne, 2-β-D-glucopyranosyloxy-1-hydroxytrideca-5,7,9,11-tetrayne] | little, if any, lowering effect on blood sugar | fivefold | increased intracellular calcium in a dose-dependent manner | same basal level of lipid droplets as the control
2 | CCC1=C(C)CN(C(=O)NCCc2ccc(S(=O)(=O)NC(=O)N[C@H]3CC[C@H](C)CC3)cc2)C1=O [glimepiride, reference compound] | little, if any, lowering effect on blood sugar |  |  | 
